Experimental data from patent US20260226527A1, “METHODS FOR IDENTIFYING HERBICIDAL COMPOUNDS” (SYNGENTA CROP PROTECTION AG, priority 2023, published 2026).

Target: T1, mature Arabidopsis BIO3-BIO1 (SEQ ID NO: 21) (Arabidopsis thaliana, UniProt B0F481)
T1 construct: 6xHis (N); thrombin cleavage site (N); made in house; host or cells: E. coli BL21 (DE3) bioA
T1 sequence (B0F481 with tags, fused parts or gaps): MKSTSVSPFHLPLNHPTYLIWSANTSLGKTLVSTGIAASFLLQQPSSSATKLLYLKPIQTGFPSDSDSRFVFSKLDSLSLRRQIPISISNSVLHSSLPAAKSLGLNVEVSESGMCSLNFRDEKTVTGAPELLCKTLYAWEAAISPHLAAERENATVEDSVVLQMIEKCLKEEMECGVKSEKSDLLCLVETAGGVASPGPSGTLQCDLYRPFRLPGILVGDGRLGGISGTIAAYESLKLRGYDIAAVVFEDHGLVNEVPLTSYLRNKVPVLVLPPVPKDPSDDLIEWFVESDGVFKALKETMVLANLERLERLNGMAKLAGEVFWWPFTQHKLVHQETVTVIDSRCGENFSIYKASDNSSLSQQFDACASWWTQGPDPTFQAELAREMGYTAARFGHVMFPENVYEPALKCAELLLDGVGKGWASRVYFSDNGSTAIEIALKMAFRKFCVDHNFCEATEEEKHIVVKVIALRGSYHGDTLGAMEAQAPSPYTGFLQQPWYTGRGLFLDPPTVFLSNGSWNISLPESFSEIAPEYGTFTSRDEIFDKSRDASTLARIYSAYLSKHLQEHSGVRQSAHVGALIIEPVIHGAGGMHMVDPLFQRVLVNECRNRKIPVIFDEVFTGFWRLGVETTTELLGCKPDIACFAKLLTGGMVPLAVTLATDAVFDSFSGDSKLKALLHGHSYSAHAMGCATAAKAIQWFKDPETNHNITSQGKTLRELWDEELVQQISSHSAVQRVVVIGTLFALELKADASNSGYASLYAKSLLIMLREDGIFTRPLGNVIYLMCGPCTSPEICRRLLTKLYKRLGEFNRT
Experiment: DAPA-AT assay with spermidine as amine donor, fluorescent detection of DAPA:o-phthalaldehyde
Assay type: biochemical
Details: 10 μM spermidine, 1 μM KAPA, 60 minutes at 20° C.; for inhibition at 1 µM: inhibitor concentration 1 μM; for inhibition at 5 µM: inhibitor concentration 5 μM; for inhibition at 20 µM: inhibitor concentration 20 μM; for inhibition at 100 µM: inhibitor concentration 100 μM; for inhibition at 0.2 µM: inhibitor concentration 0.2 μM
Procedure: A pET-24 plasmid containing a DNA sequence encoding BIO3-BIO1 derived from Arabidopsis thaliana, codon-optimised for expression in E. coli, with the predicted N-terminal mitochondrial transit peptide removed and with an N-terminal 6×His-tag and thrombin cleavage site and under control of a T7 promoter (SEQ ID NO:38), was synthesised by Twist Bioscience. The plasmid was expressed in E. coli BL21 (DE3) bioA with 50 μg/mL kanamycin and 25 μg/mL chloramphenicol selection. Overnight cultures grown at 37° C. were used to inoculate 8×500 mL AIM in shake flasks at a ratio of 1:100. Cultures were grown at 37° C., 200 rpm for 3.5 hours and then overnight at 20° C. Cells were harvested by centrifugation for 30 minutes at 10 000 g. Cells were stored at −80° C. until extraction. 30 g of cell pellet from was thawed in 120 mL of IMAC buffer A (20 mM HEPES pH7.5, 25 mM imidazole, 500 mM sodium chloride, 0.15 mM pyridoxal phosphate, 0.5 mM TCEP, 1×complete Protease Inhibitor Tablet (Roche)). The resuspension was passed through a cell disrupter at 18 000 PSI and centrifuged at 50 000 g for 25 minutes at 4° C. The His-tagged BIO3-BIO1 protein was purified from the extract supernatant on an ÄKTA avant chromatography system (Cytiva) using a HisTrap FF column and eluted in IMAC buffer B ((20 mM HEPES pH7.5, 500 mM imidazole, 500 mM sodium chloride, 0.15 mM pyridoxal phosphate, 0.5 mM TCEP) followed by SEC using a HiLoad 26/60 Superdex200 column in SEC buffer (25 mM HEPES pH7.5, 150 mM sodium chloride, 0.15 mM pyridoxal phosphate, 0.5 mM TCEP). Protein concentration was measured and calculated using the absorbance at 280 nm. Extracts were diluted 1 in 4 and 10 uL was analysed by SDS PAGE.
To measure DAPA-AT enzyme activity in the presence of herbicide (candidate compound), 0.5 μL of the herbicide was incubated with 20 μL of enzyme mix (100 mM EPPS pH 8.6, 0.1 mM pyridoxal phosphate, 0.1 mg/mL BSA, 25 nM BIO3-BIO1 enzyme) for 10 minutes at 20° C. in a well of a 384-well black plate, followed by the addition of 20 μL of substrate mix (final concentration of 100 mM EPPS pH 8.6, 0.1 mM pyridoxal phosphate, 0.1 mg/mL BSA, 10 μM spermidine, 1 μM KAPA, 100 mM NaHCO3) and further incubation for 60 minutes at 20° C. The reaction was terminated by the addition of 50 μL of derivatisation mix consisting of 185 mM borate NaOH pH 9.4, 3 mM o-phthalaldehyde, 6 mM β-mercaptoethanol, 22.5% (v/v) ethanol, 3% (v/v) methanol. The fluorescent product produced by the reaction of DAPA with o-phthalaldehyde and β-mercaptoethanol was measured at 470 nm after excitation at 410 nm. The percentage inhibition was calculated using the equation, % inhibition=100×((((MAX−MIN)−(X−MIN))/(MAX−MIN))), where MIN and MAX are the average of the minimum reaction and maximum reaction controls and X is the test sample. Compounds are typically added directly to the assay plate in a serial 3× dilution from a top final concentration of 100 μM over 10 different concentrations. The percent inhibition values are fitted to a dose-response using the equation Y=Bottom+(Top−Bottom)/(1+((X^Hill Slope)/(IC50^Hill Slope))) to calculate the compound concentration that gives 50% inhibition (IC50).

| SMILES | inhibition at 1 µM [%] | inhibition at 5 µM [%] | inhibition at 20 µM [%] | inhibition at 100 µM [%] | inhibition at 0.2 µM [%] |
| --- | --- | --- | --- | --- | --- |
| CCOC(=O)c1nn(-c2ccc3c(c2)OC(F)(F)C(F)(F)O3)c2cccc(C(C)=O)c2c1=O [Compound A, ethyl 5-acetyl-4-oxo-1-(2,2,3,3-tetrafluoro-1,4-benzodioxin-6-yl)cinnoline-3-carboxylate] | 59 | 84 |  |  |  |
| CC(O)C(N)CCCCC(=O)O (centres unmarked) [Compound B, [5-carboxy-1-(1-hydroxyethyl)pentyl]ammonium; chloride] |  |  | 84 | 95 |  |
| CCn1c(C)c(-c2ccc(F)cc2F)c(=O)c(C(=O)O)c1-c1ccc(Cl)c(Cl)c1 [Compound C, 2-(3,4-dichlorophenyl)-5-(2,4-difluorophenyl)-1-ethyl-6-methyl-4-oxo-pyridine-3-carboxylic acid] | 64 | 85 |  |  | 29 |
| CCn1c(C)c(-c2cc(OC(F)(F)F)ccc2Cl)c(=O)c(C(=O)O)c1-c1ccc(Cl)c(Cl)c1 [Compound D, 5-[2-chloro-5-(trifluoromethoxy)phenyl]-2-(3,4-dichlorophenyl)-1-ethyl-6-methyl-4-oxo-pyridine-3-carboxylic acid] | 84 | 95 |  |  | 51 |
| C[C@@H](N)COc1cccc(C(=O)O)n1 [Compound E, [(1R)-2-(6-carboxypyridin-1-ium-2-yl)oxy-1-methyl-ethyl]ammonium; dichloride] |  |  | 80 | 94 |  |
| CCn1c(Cn2ccc(C(F)(F)F)n2)cc(=O)c(C(=O)O)c1-c1ccc(Cl)c(Cl)c1 [Compound L, 2-(3,4-dichlorophenyl)-1-ethyl-4-oxo-6-[[3-(trifluoromethyl)pyrazol-1-yl]methyl]pyridine-3-carboxylic acid] | 44 | 83 |  |  | 6 |
| CCn1c(-c2ccc(Cl)c(Cl)c2)c(C(=O)O)c(=O)c2cc(F)ccc21 [Compound M, 2-(3,4-dichlorophenyl)-1-ethyl-6-fluoro-4-oxo-quinoline-3-carboxylic acid] | 58 | 82 |  |  |  |
